Test results as given in ChEMBL document CHEMBL1130203, “Novel fluoroquinolone antibacterial agents containing oxime-substituted (aminomethyl)pyrrolidines: synthesis and antibacterial activity of 7-(4-(aminomethyl)-3-(methoxyimino)pyrrolidin-1-yl)-1-cyclopropyl-6- fluoro-4-oxo-1,4-dihydro[1,8]naphthyridine-3-carboxylic acid (LB20304)” (J Med Chem, 1997).
In brackets after ≈: the same amount, converted by molar mass.

What was measured:
Format in all cases: functional
Bacillus subtilis = experiment: Minimum inhibitory concentration (MIC) against Bacillus subtilis ATCC 6633
Escherichia coli [1] = experiment: Minimum inhibitory concentration (MIC) against Escherichia coli TEM9 2639E; conditions: Escherichia coli; read-out: MIC
Escherichia coli [2] = experiment: Minimum inhibitory concentration (MIC) against Escherichia coli 3190Y
Staphylococcus aureus [3] = experiment: Minimum inhibitory concentration (MIC) against Staphylococcus aureus 6538p.
[4] = test system: Staphylococcus epidermidis; experiment: Minimum inhibitory concentration (MIC) against Staphylococcus epidermidis 887E
Enterococcus faecalis = experiment: Minimum inhibitory concentration (MIC) against Streptococcus faecalis 29212; conditions: Enterococcus faecalis; read-out: MIC
Staphylococcus aureus [5] = experiment: Minimum inhibitory concentration (MIC) against Staphylococcus aureus 241; conditions: Staphylococcus aureus; read-out: MIC
[6] = test system: Acinetobacter calcoaceticus; experiment: Minimum inhibitory concentration (MIC) against Acinetobacter calcoaceticus 15473; conditions: Acinetobacter calcoaceticus; read-out: MIC
Pseudomonas aeruginosa = experiment: Minimum inhibitory concentration (MIC) against Pseudomonas aeruginosa 1912E; conditions: Pseudomonas aeruginosa; read-out: MIC
Staphylococcus aureus [7] = experiment: Minimum inhibitory concentration (MIC) against Staphylococcus aureus giorgio
Enterobacter cloacae = experiment: Minimum inhibitory concentration (MIC) against Enterobacter cloacae P99
Escherichia coli [8] = experiment: Minimum inhibitory concentration (MIC) against Escherichia coli 10536
[9] = test system: Staphylococcus epidermidis; experiment: Minimum inhibitory concentration (MIC) against Staphylococcus epidermidis 178; conditions: Staphylococcus epidermidis; read-out: MIC
Klebsiella aerogenes = experiment: Minimum inhibitory concentration (MIC) against Klebsiella aerogenes 1082E; conditions: Klebsiella aerogenes; read-out: MIC
[10] = test system: Acinetobacter calcoaceticus; experiment: Minimum inhibitory concentration (MIC) against Acinetobacter calcoaceticus 5473

Compound	MIC (Bacillus subtilis) [µg/mL]	MIC (Escherichia coli [1]) [µg/mL]	MIC (Escherichia coli [2]) [µg/mL]	MIC (Staphylococcus aureus [3]) [µg/mL]	MIC [4] [µg/mL]	MIC (Enterococcus faecalis) [µg/mL]	MIC (Staphylococcus aureus [5]) [µg/mL]	MIC [6] [µg/mL]	MIC (Pseudomonas aeruginosa) [µg/mL]	MIC (Staphylococcus aureus [7]) [µg/mL]	MIC (Enterobacter cloacae) [µg/mL]	MIC (Escherichia coli [8]) [µg/mL]	MIC [9] [µg/mL]	MIC (Klebsiella aerogenes) [µg/mL]	MIC [10] [µg/mL]
CO/N=C1\CN(c2nc3c(cc2F)c(=O)c(C(=O)O)cn3C2CC2)CC1CN (stereo in doubt) [GEMIFLOXACIN]	< 0.008	0.031 (≈ 0.0796 µM)	< 0.008	< 0.008	< 0.008	0.063 (≈ 0.162 µM)	4 (≈ 10.3 µM)	0.063 (≈ 0.162 µM)	0.25 (≈ 0.642 µM)	< 0.008	< 0.008	< 0.008	4 (≈ 10.3 µM)	0.031 (≈ 0.0796 µM)	
CO/N=C1\CN(c2cc3c(cc2F)c(=O)c(C(=O)O)cn3C2CC2)CC1CN (configuration not stated)	< 0.008	0.031 (≈ 0.0798 µM)	< 0.008	0.008 (≈ 0.0206 µM)	0.016 (≈ 0.0412 µM)	0.031 (≈ 0.0798 µM)	4 (≈ 10.3 µM)		0.25 (≈ 0.644 µM)	0.016 (≈ 0.0412 µM)	0.008 (≈ 0.0206 µM)	< 0.008	4 (≈ 10.3 µM)	0.031 (≈ 0.0798 µM)	0.13 (≈ 0.335 µM)
CO/N=C1\CN(c2c(F)c(N)c3c(=O)c(C(=O)O)cn(C4CC4)c3c2F)CC1CN (configuration not stated)	< 0.008	0.016 (≈ 0.038 µM)	0.016 (≈ 0.038 µM)	< 0.008	< 0.008	0.016 (≈ 0.038 µM)	0.25 (≈ 0.593 µM)		0.25 (≈ 0.593 µM)	< 0.008	< 0.008	< 0.008	0.25 (≈ 0.593 µM)	0.016 (≈ 0.038 µM)	0.031 (≈ 0.0736 µM)
CNCC1CN(c2nc3c(cc2F)c(=O)c(C(=O)O)cn3C2CC2)C/C1=N\OC (configuration not stated)	0.25 (≈ 0.62 µM)	0.5 (≈ 1.24 µM)	0.063 (≈ 0.156 µM)	0.063 (≈ 0.156 µM)	0.13 (≈ 0.322 µM)	0.5 (≈ 1.24 µM)	128 (≈ 317 µM)	1 (≈ 2.48 µM)	2 (≈ 4.96 µM)	0.13 (≈ 0.322 µM)	0.13 (≈ 0.322 µM)	0.063 (≈ 0.156 µM)	128 (≈ 317 µM)	0.5 (≈ 1.24 µM)	
CCO/N=C1\CN(c2nc3c(cc2F)c(=O)c(C(=O)O)cn3C2CC2)CC1CN (configuration not stated)	< 0.008	0.031 (≈ 0.0768 µM)	< 0.008	< 0.008	< 0.008	0.063 (≈ 0.156 µM)	2 (≈ 4.96 µM)	0.016 (≈ 0.0397 µM)	0.5 (≈ 1.24 µM)	< 0.008	< 0.008	< 0.008	2 (≈ 4.96 µM)	0.031 (≈ 0.0768 µM)	
CC(C)(C)O/N=C1\CN(c2nc3c(cc2F)c(=O)c(C(=O)O)cn3C2CC2)CC1CN (configuration not stated)	< 0.008	0.063 (≈ 0.146 µM)	0.016 (≈ 0.0371 µM)	0.008 (≈ 0.0185 µM)	< 0.008	0.063 (≈ 0.146 µM)	1 (≈ 2.32 µM)	0.031 (≈ 0.0718 µM)	2 (≈ 4.64 µM)	< 0.008	≤ 0.008	≤ 0.008	1 (≈ 2.32 µM)	0.25 (≈ 0.579 µM)	
CCn1cc(C(=O)O)c(=O)c2cc(F)c(N3C/C(=N\OC)C(CN)C3)c(F)c21 (configuration not stated)	0.031 (≈ 0.0786 µM)	0.5 (≈ 1.27 µM)	0.063 (≈ 0.16 µM)	0.031 (≈ 0.0786 µM)	0.063 (≈ 0.16 µM)	0.25 (≈ 0.634 µM)	4 (≈ 10.1 µM)	1 (≈ 2.54 µM)	2 (≈ 5.07 µM)	0.063 (≈ 0.16 µM)	0.13 (≈ 0.33 µM)	0.063 (≈ 0.16 µM)	4 (≈ 10.1 µM)	0.5 (≈ 1.27 µM)	
NCC1CN(c2nc3c(cc2F)c(=O)c(C(=O)O)cn3C2CC2)C/C1=N\Oc1ccccc1 (configuration not stated)	< 0.008	0.13 (≈ 0.288 µM)	0.016 (≈ 0.0354 µM)	0.016 (≈ 0.0354 µM)	< 0.008	0.13 (≈ 0.288 µM)	< 0.008	0.016 (≈ 0.0354 µM)	2 (≈ 4.43 µM)	0.016 (≈ 0.0354 µM)	0.031 (≈ 0.0687 µM)	0.031 (≈ 0.0687 µM)	16 (≈ 35.4 µM)	0.13 (≈ 0.288 µM)	
